Measured values from the NIST ThermoML archive (doi:10.1021/je100577v).
Numbers after ± are expanded uncertainties.

Test: xn = mol fraction of the nth substance listed
Details: Liquid, Vibrating tube method

CC12CCC(CC1)C(C)(C)O2 [1,3,3-trimethyl-2-oxabicyclo[2.2.2]octane] + CCCO
mass density [kg/m3]
Details	20000 kPa	25000 kPa	30000 kPa	35000 kPa	40000 kPa
283.15 K, x1 = 0.0499	839.5 ± 1	842.9 ± 1	845.8 ± 1	848.9 ± 1	851.6 ± 1
283.15 K, x1 = 0.1061	853.7 ± 1	856.9 ± 1	859.8 ± 1	862.8 ± 1	865.5 ± 1
283.15 K, x1 = 0.2029	873.3 ± 1	876.4 ± 1	879.3 ± 1	882.3 ± 1	885 ± 1
283.15 K, x1 = 0.3028	889.7 ± 1	892.8 ± 1	895.6 ± 1	898.6 ± 1	901.4 ± 1
283.15 K, x1 = 0.3955	901.8 ± 1	905 ± 1	907.9 ± 1	910.7 ± 1	913.5 ± 1
283.15 K, x1 = 0.4938	912.4 ± 1	915.6 ± 1	918.5 ± 1	921.3 ± 1	924 ± 1
283.15 K, x1 = 0.5904	921.2 ± 1	924.4 ± 1	927.3 ± 1	930.1 ± 1	932.9 ± 1
283.15 K, x1 = 0.7	929.6 ± 1	932.8 ± 1	935.7 ± 1	938.5 ± 1	941.2 ± 1
283.15 K, x1 = 0.7915	935.7 ± 1	938.9 ± 1	941.7 ± 1	944.6 ± 1	947.3 ± 1
283.15 K, x1 = 0.8954	941.2 ± 1	944.3 ± 1	947.2 ± 1	950.1 ± 1	952.8 ± 1
283.15 K, x1 = 0.9332	942.9 ± 1	946.1 ± 1	949 ± 1	951.8 ± 1	954.5 ± 1
283.15 K, x1 = 1	945.9 ± 1	949.1 ± 1	952 ± 1	954.9 ± 1	957.6 ± 1
298.15 K, x1 = 0.0499	828.6 ± 1	831.8 ± 1	835.1 ± 1	838.1 ± 1	841.2 ± 1.1
298.15 K, x1 = 0.1061	842.6 ± 1	845.8 ± 1	849 ± 1	852 ± 1	855 ± 1
298.15 K, x1 = 0.2029	862 ± 1	865.2 ± 1	868.4 ± 1	871.4 ± 1	874.4 ± 1
298.15 K, x1 = 0.3028	878.3 ± 1	881.6 ± 1	884.7 ± 1	887.7 ± 1	890.6 ± 1
298.15 K, x1 = 0.3955	890.5 ± 1	893.7 ± 1	896.7 ± 1	899.8 ± 1	902.7 ± 1
298.15 K, x1 = 0.4938	901 ± 1	904.3 ± 1	907.3 ± 1	910.3 ± 1	913.2 ± 1
298.15 K, x1 = 0.5904	909.7 ± 1	912.9 ± 1	915.9 ± 1	918.9 ± 1	921.9 ± 1
298.15 K, x1 = 0.7	917.9 ± 1	921.1 ± 1	924.2 ± 1	927.1 ± 1	930.1 ± 1
298.15 K, x1 = 0.7915	923.9 ± 1	927.1 ± 1	930.2 ± 1	933.2 ± 1	936.1 ± 1
298.15 K, x1 = 0.8954	929.4 ± 1	932.6 ± 1	935.7 ± 1	938.8 ± 1	941.6 ± 1
298.15 K, x1 = 0.9332	931.1 ± 1	934.3 ± 1	937.3 ± 1	940.3 ± 1	943.3 ± 1
298.15 K, x1 = 1	934.1 ± 1	937.4 ± 1	940.5 ± 1	943.4 ± 1	946.4 ± 1
313.15 K, x1 = 0.0499	817.1 ± 1	820.8 ± 1	824.3 ± 1	827.5 ± 1.1	830.7 ± 1.1
313.15 K, x1 = 0.1061	831 ± 1	834.7 ± 1	838.1 ± 1	841.3 ± 1	844.5 ± 1.1
313.15 K, x1 = 0.2029	850.4 ± 1	854 ± 1	857.4 ± 1	860.7 ± 1	863.9 ± 1
313.15 K, x1 = 0.3028	866.6 ± 1	870.2 ± 1	873.5 ± 1	876.7 ± 1	879.8 ± 1
313.15 K, x1 = 0.3955	878.6 ± 1	882.2 ± 1	885.5 ± 1	888.7 ± 1	891.7 ± 1
313.15 K, x1 = 0.4938	889.1 ± 1	892.6 ± 1	895.9 ± 1	899 ± 1	902.1 ± 1
313.15 K, x1 = 0.5904	897.7 ± 1	901.2 ± 1	904.5 ± 1	907.6 ± 1	910.8 ± 1
313.15 K, x1 = 0.7	905.8 ± 1	909.3 ± 1	912.6 ± 1	915.8 ± 1	918.9 ± 1
313.15 K, x1 = 0.7915	911.8 ± 1	915.3 ± 1	918.6 ± 1	921.8 ± 1	924.9 ± 1
313.15 K, x1 = 0.8954	917.3 ± 1	920.8 ± 1	924 ± 1	927.3 ± 1	930.5 ± 1
313.15 K, x1 = 0.9332	919.1 ± 1	922.5 ± 1	925.9 ± 1	929.1 ± 1	932.2 ± 1
313.15 K, x1 = 1	922.3 ± 1	925.8 ± 1	929.1 ± 1	932.4 ± 1	935.5 ± 1
328.15 K, x1 = 0.0499	805.9 ± 1	809.7 ± 1	813.3 ± 1	816.8 ± 1.1	820.2 ± 1.1
328.15 K, x1 = 0.1061	819.7 ± 1	823.5 ± 1	827.1 ± 1	830.6 ± 1.1	833.9 ± 1.1
328.15 K, x1 = 0.2029	838.9 ± 1	842.6 ± 1	846.3 ± 1	849.6 ± 1	853.1 ± 1
328.15 K, x1 = 0.3028	854.9 ± 1	858.6 ± 1	862.1 ± 1	865.6 ± 1	868.9 ± 1
328.15 K, x1 = 0.3955	866.9 ± 1	870.5 ± 1	874 ± 1	877.4 ± 1	880.9 ± 1
328.15 K, x1 = 0.4938	877.2 ± 1	880.9 ± 1	884.4 ± 1	887.9 ± 1	891.2 ± 1
328.15 K, x1 = 0.5904	885.9 ± 1	889.6 ± 1	893.1 ± 1	896.5 ± 1	899.9 ± 1
328.15 K, x1 = 0.7	894 ± 1	897.7 ± 1	901.2 ± 1	904.6 ± 1	908 ± 1
328.15 K, x1 = 0.7915	899.9 ± 1	903.7 ± 1	907.2 ± 1	910.5 ± 1	913.9 ± 1
328.15 K, x1 = 0.8954	905.5 ± 1	909.3 ± 1	912.7 ± 1	916.2 ± 1	919.5 ± 1
328.15 K, x1 = 0.9332	907.3 ± 1	911 ± 1	914.5 ± 1	917.9 ± 1	921.3 ± 1
328.15 K, x1 = 1	910.6 ± 1	914.3 ± 1	917.9 ± 1	921.3 ± 1	924.7 ± 1
